Legend:
[1] = target: T1, Cytosolic 10-formyltetrahydrofolate dehydrogenase (Rattus norvegicus, UniProt P28037); assay: Inhibition of rat ALDH1L1 assessed as reduction in dehydrogenase activity by measuring NAD(P)H level preincubated for 2 mins followed by addition of propionaldehyde as substrate in presence of NAD+ by spectrophotometric method
T1 sequence (P28037 whole entry): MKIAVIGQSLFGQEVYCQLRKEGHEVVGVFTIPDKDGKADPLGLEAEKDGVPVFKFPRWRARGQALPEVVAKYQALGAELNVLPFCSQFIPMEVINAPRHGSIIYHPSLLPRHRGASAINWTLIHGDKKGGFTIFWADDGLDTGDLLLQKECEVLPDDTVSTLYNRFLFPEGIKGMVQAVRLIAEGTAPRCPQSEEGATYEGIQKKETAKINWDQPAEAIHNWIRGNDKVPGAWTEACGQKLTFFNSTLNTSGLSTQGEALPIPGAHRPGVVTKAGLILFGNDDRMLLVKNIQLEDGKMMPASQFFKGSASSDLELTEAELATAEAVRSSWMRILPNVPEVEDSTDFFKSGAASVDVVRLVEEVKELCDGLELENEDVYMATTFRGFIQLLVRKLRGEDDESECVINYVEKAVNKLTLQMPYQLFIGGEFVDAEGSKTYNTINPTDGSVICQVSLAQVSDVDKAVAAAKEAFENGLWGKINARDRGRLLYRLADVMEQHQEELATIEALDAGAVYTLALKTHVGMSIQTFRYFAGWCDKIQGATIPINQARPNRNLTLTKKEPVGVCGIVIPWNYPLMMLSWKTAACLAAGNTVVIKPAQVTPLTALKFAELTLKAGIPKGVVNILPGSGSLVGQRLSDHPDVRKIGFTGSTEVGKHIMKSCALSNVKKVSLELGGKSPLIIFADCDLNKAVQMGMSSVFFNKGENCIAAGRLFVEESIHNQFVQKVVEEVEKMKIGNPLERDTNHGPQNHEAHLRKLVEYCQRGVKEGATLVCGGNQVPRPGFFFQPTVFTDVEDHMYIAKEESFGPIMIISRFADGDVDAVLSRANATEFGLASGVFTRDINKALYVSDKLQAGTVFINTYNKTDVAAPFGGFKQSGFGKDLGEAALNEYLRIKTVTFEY

[2] = target: T2, Aldehyde dehydrogenase, mitochondrial (Homo sapiens, UniProt P05091)
T2 sequence (P05091 whole entry): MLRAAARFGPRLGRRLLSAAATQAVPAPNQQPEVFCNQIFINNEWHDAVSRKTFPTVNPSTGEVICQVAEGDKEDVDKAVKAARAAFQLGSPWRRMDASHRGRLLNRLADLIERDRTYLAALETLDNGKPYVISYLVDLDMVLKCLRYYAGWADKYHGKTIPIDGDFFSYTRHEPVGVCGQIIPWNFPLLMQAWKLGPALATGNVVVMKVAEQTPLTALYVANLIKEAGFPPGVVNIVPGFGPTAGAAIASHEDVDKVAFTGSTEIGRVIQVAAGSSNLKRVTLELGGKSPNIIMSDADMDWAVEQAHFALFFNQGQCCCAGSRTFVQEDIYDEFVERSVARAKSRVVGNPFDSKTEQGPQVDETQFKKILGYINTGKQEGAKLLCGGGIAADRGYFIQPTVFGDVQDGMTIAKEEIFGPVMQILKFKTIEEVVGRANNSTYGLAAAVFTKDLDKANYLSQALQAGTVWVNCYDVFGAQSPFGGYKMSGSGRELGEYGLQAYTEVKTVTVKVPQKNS
Description: Competitive inhibition of full length recombinant human ALDH2 expressed in Escherichia coli assessed as reduction in dehydrogenase activity using propionaldehyde as substrate in presence of varying levels NAD+ by Lineweaver-Burk plot analysis

[3] = target: T3, Aldehyde dehydrogenase, dimeric NADP-preferring (Homo sapiens) (UniProt P30838); assay: Inhibition of full length recombinant human ALDH3A1 expressed in Escherichia coli BL21(DE3) assessed as remaining dehydrogenase activity by measuring NAD(P)H level at 10 uM preincubated for 2 mins followed by addition of propionaldehyde as substrate in presence of NAD+ by spectrophotometric method
T3 sequence (whole entry): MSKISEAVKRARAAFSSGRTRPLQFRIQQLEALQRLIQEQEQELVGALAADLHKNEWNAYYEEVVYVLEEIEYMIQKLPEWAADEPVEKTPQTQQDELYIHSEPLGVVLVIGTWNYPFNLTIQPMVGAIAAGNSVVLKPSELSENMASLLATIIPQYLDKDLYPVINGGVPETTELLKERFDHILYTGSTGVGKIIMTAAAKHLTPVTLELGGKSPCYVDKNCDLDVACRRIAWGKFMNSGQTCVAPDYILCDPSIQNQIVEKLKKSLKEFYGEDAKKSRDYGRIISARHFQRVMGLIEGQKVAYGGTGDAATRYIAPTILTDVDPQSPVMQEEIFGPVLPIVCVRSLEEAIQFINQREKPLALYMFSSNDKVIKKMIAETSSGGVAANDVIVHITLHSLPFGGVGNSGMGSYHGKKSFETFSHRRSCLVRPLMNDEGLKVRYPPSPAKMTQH

[4] = target: T4, Aldehyde dehydrogenase 1A1 (Homo sapiens, UniProt P00352)
T4 sequence (P00352 whole entry): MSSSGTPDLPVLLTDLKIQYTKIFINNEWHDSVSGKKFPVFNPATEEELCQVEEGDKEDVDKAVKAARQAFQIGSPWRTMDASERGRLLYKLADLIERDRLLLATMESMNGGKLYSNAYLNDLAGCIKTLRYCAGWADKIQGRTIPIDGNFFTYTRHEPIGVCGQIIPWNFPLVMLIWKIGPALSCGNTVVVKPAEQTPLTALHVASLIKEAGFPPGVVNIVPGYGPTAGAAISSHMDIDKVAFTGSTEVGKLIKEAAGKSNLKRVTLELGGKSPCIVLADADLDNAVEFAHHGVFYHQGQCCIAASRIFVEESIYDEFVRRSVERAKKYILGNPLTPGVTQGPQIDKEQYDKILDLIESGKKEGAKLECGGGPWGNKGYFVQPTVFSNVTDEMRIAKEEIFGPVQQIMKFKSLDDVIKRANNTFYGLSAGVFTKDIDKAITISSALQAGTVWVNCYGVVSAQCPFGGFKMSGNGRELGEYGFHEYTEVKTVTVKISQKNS
Description: Inhibition of full length recombinant human ALDH1A1 expressed in Escherichia coli BL21(DE3) assessed as reduction in dehydrogenase activity by measuring NAD(P)H level preincubated for 2 mins followed by addition of propionaldehyde as substrate in presence of NAD+ by spectrophotometric method

| SMILES | IC50 [1] | Ki [2] [nM] | Activity [3] [%] | IC50 [4] [nM] |
| --- | --- | --- | --- | --- |
| COC(=O)C(C)Oc1ccc2c(C)cc(=O)oc2c1 (centres undefined) | Not Active | 310 | – | – |
| Cc1oc2cc3oc(=O)c(CCC(=O)N4CCCCC4)c(C)c3cc2c1C | – | 1100 | 105 | 130 |
| C/C(=N\O)c1cc2cc(Br)ccc2oc1=O | – | 2400 | 91.7 | – |
| CCCc1c(C)c2cc3c(C)c(C)oc3cc2oc1=O | Not Active | 19 | 86.3 | 220 |
| CCCc1c(C)c2cc3c(C)coc3cc2oc1=O | Not Active | – | 96.1 | 340 |
| Cc1oc2cc3oc(=O)c4c(c3cc2c1C)CCC4 | – | – | 87.1 | 170 |
| CCCc1cc(=O)oc2cc3oc(C)c(C)c3cc12 | – | – | 80.4 | – |
| Cc1oc2cc3oc(=O)c(C)c(C)c3cc2c1C | Not Active | – | 95.3 | – |

Source: ChEMBL document CHEMBL4007427, “Inhibition of the Aldehyde Dehydrogenase 1/2 Family by Psoralen and Coumarin Derivatives” (J Med Chem, 2017)
